The numbers were not newly measured in patent publication US8354566B2, “Lubricating oil additive and lubricating oil composition containing same” (Chevron Oronite Company LLC, priority 2010, dated 2013), which cites them from elsewhere.

The data set deals with estrogen-inducible strain of yeast. The settings on record: compared among alkylphenols and with 17β-estradiol.

For `CC(C)(C)CC(C)(C)c1ccc(O)cc1` [4-tert-octylphenol, 4-(1,1,3,3-Tetramethyl-butyl)-phenol], the estrogenic activity entry was “highest activity”.
